≈ marks a conversion by molar mass, not a printed value. Like-named read-outs stand apart in the source and are kept apart here.
Experiments:
Staphylococcus aureus [1] = assay: MIC by NCCLS broth microdilution, 1100 Japanese clinical isolates 1997-1998; type: cell-based; settings: Staphylococcus aureus; for MIC: Staphylococcus aureus quinolone resistant
Streptococcus pyogenes = assay: as above; type: cell-based
Enterococcus faecium = assay: as above; type: cell-based; settings: for MIC: Enterococcus faecium
Serratia marcescens = assay: as above; type: cell-based; settings: Serratia marcescens (n=30)
[2] = tested on: Gram negative anaerobic pathogens and facultative anaerobic pathogens; assay: MIC by agar dilution, Brucella HK agar with 5% laked sheep blood, anaerobic reference strains; type: cell-based
Enterococcus faecalis = assay: MIC by agar macrodilution (NCCLS), 373 Gram positive isolates, Athens 1998; type: cell-based
Staphylococcus aureus [3] = assay: as above; type: cell-based; settings: Methicillin-susceptible Staphylococcus aureus (n = 85)
Campylobacter jejuni = assay: MIC by agar dilution (NCCLS M7-A4), 288 enteropathogenic isolates, gemifloxacin and 15 other antimicrobials; settings: for MIC: Campylobacter jejuni

## N[C@@H]1[C@H]2CN(c3nc4c(cc3F)c(=O)c(C(=O)O)cn4-c3ccc(F)cc3F)C[C@@H]12 [Trovafloxacin, trovafloxacin]
Staphylococcus aureus [1]; Staphylococcus aureus oxacillin susceptible (n=41)
  MIC90: 0.063 µg/mL (≈ 0.151 µM)
Staphylococcus aureus [1]; strain TMS1* (spontaneous mutant resistant to ciprofloxacin)
  MIC: 0.125 µg/mL (≈ 0.3 µM)
Staphylococcus aureus [1]; strain TMS3, read-out: MIC
  MIC: 128 µg/mL (≈ 307 µM)
Staphylococcus aureus [1]; strain TMS4, read-out: MIC
  MIC: 0.5 µg/mL (≈ 1.2 µM)
Staphylococcus aureus [1]; strain TMS5, read-out: MIC
  MIC: 1 µg/mL (≈ 2.4 µM)
Staphylococcus aureus [1]; strain TMS6, read-out: MIC
  MIC: 0.5 µg/mL (≈ 1.2 µM)
Streptococcus pyogenes; Streptococcus pyogenes
  MIC50: 0.125 µg/mL (≈ 0.3 µM)
Streptococcus pyogenes; Streptococcus pyogenes (n=51)
  MIC90: 0.5 µg/mL (≈ 1.2 µM)
  MIC Range: 0.063 to 0.5 µg/mL
Enterococcus faecium; Enterococcus faecium (n=39)
  MIC50: 16 µg/mL (≈ 38.4 µM)
  MIC90: 64 µg/mL (≈ 154 µM)
  MIC Range: 0.25 to 64 µg/mL
Enterococcus faecium; Enterococcus faecium (vanA) vancomycin resistant, strain TMS1
  MIC: 8 µg/mL (≈ 19.2 µM)
Enterococcus faecium; Enterococcus faecium (vanA) vancomycin resistant, strain TMS2
  MIC: 1 µg/mL (≈ 2.4 µM)
Enterococcus faecium; Enterococcus faecium (vanA) vancomycin resistant, strain TMS3
  MIC: 8 µg/mL (≈ 19.2 µM)
Enterococcus faecium; Enterococcus faecium (vanA) vancomycin resistant, strain TMS4
  MIC: 8 µg/mL (≈ 19.2 µM)
Enterococcus faecium; Enterococcus faecium (vanA) vancomycin resistant, strain TMS5
  MIC: 2 µg/mL (≈ 4.8 µM)
Enterococcus faecium; Enterococcus laecium (van B) vancomycin resistant, strain TMS6
  MIC: 32 µg/mL (≈ 76.9 µM)
Enterococcus faecium; Enterococcus laecium (van B) vancomycin resistant, strain TMS7
  MIC: 32 µg/mL (≈ 76.9 µM)
Serratia marcescens
  MIC90: 2 µg/mL (≈ 4.8 µM)
Serratia marcescens; read-out: MIC50
  MIC50: 0.25 µg/mL (≈ 0.6 µM)
[2]
  MIC: 0.125 µg/mL (≈ 0.3 µM)
[2]; Bacteroides eggerthii, ATCC27754, Bacteroides eggerthii ATCC27754, read-out: MIC
  MIC: 0.5 µg/mL (≈ 1.2 µM)
[2]; Bacteroides fragilis
  MIC: 0.125 µg/mL (≈ 0.3 µM)
[2]; Bacteroides fragilis GA-I0558
  MIC: 0.125 µg/mL (≈ 0.3 µM)
[2]; Bacteroides fragilis, ATCC25285
  MIC: 0.125 µg/mL (≈ 0.3 µM)
[2]; Bacteroides fragilis, Bacteroides fragilis GA-I7955, read-out: MIC
  MIC: 0.25 µg/mL (≈ 0.6 µM)
[2]; Bacteroides fragilis, Bacteroides fragilis GAI10150, read-out: MIC
  MIC: 0.25 µg/mL (≈ 0.6 µM)
[2]; Bacteroides fragilis, Bacteroides fragilis GAI30079, read-out: MIC
  MIC: 0.5 µg/mL (≈ 1.2 µM)
[2]; Bacteroides fragilis, Bacteroides fragilis GAI30144, read-out: MIC
  MIC: 0.25 µg/mL (≈ 0.6 µM)
[2]; Bacteroides fragilis, NCTC10581, Bacteroides fragilis NCTC10581, read-out: MIC
  MIC: 0.25 µg/mL (≈ 0.6 µM)
[2]; Bacteroides ovatus, ATCC8483, Bacteroides ovatus ATCC8483, read-out: MIC
  MIC: 0.5 µg/mL (≈ 1.2 µM)
[2]; Bacteroides thetaiotaomicron, ATCC29741, Bacteroides thetaiotaomicron ATCC29741, read-out: MIC
  MIC: 0.5 µg/mL (≈ 1.2 µM)
[2]; Bilophilla wadsworthia WAL7959, read-out: MIC
  MIC: 0.5 µg/mL (≈ 1.2 µM)
[2]; Campylobacter gracilis, JCM8538, Campylobacter gracilis JCM8538, read-out: MIC
  MIC: ≤ 0.03 µg/mL
[2]; Campylobacter ureolyticus, NCTC10941, Bacteroides ureolyticus NCTC10941, read-out: MIC
  MIC: ≤ 0.03 µg/mL
[2]; Capnocytophaga ochracea, Capnocytophaga ochracea GAI5586, read-out: MIC
  MIC: ≤ 0.03 µg/mL
[2]; Fusobacterium necrophorum, ATCC25286, Fusobacterium necrophorum ATCC25286, read-out: MIC
  MIC: 0.25 µg/mL (≈ 0.6 µM)
[2]; Fusobacterium nucleatum, ATCC25586, Fusobacterium nucleatum ATCC25586, read-out: MIC
  MIC: 0.5 µg/mL (≈ 1.2 µM)
[2]; Fusobacterium varium, ATCC8501, Fusobacterium varium ATCC8501, read-out: MIC
  MIC: 4 µg/mL (≈ 9.61 µM)
[2]; Hoylesella oralis, ATCC33269, Prevotella oralis ATCC33269, read-out: MIC
  MIC: 2 µg/mL (≈ 4.8 µM)
[2]; Parabacteroides distasonis, ATCC8503, Bacteroides distasonis ATCC8503, read-out: MIC
  MIC: 0.5 µg/mL (≈ 1.2 µM)
[2]; Phocaeicola vulgatus, ATCC8482, Bacteroides vulgatus ATCC8482, read-out: MIC
  MIC: 0.5 µg/mL (≈ 1.2 µM)
[2]; Porphylomonas gingivalis ATCC33277, read-out: MIC
  MIC: ≤ 0.03 µg/mL
[2]; Porphyromonas asaccharolytica, ATCC25260
  MIC: 0.125 µg/mL (≈ 0.3 µM)
[2]; Prevotella bivia, ATCC29303, Prevotella bivia ATCC29303, read-out: MIC
  MIC: 2 µg/mL (≈ 4.8 µM)
[2]; Prevotella buccaeATCC33574, read-out: MIC
  MIC: 0.5 µg/mL (≈ 1.2 µM)
[2]; Prevotella heparinolytica, ATCC35895
  MIC: 0.125 µg/mL (≈ 0.3 µM)
[2]; Sutterella wadsworthensis, ATCC51579, Sutterella wadsworthensis ATCC51579, read-out: MIC
  MIC: 0.25 µg/mL (≈ 0.6 µM)
[2]; Veillonella dispar, ATCC17748
  MIC: 0.125 µg/mL (≈ 0.3 µM)
[2]; Veillonella parvula, ATCC10790, Veillonella parvula ATCC10790, read-out: MIC
  MIC: 0.25 µg/mL (≈ 0.6 µM)
Enterococcus faecalis
  MIC distribution (µg/ml) 0.06: 1
  MIC distribution (µg/ml) 0.125: 0
  MIC distribution (µg/ml) 0.25: 6
  MIC distribution (µg/ml) 0.5: 21
  MIC distribution (µg/ml) 1: 23
  MIC distribution (µg/ml) 2: 6
  MIC distribution (µg/ml) 4: 0
  MIC distribution (µg/ml) 8: 3
  MIC distribution (µg/ml) 16: 3
  MIC distribution (µg/ml) ≤0.015: 0
  MIC distribution (µg/ml) ≥32: 17
Enterococcus faecalis; Enterococcus faecalis, n = 81 isolates, read-out: MIC50
  MIC50: 1 µg/mL (≈ 2.4 µM)
Enterococcus faecalis; Enterococcus faecalis, n = 81 isolates, read-out: MIC90
  MIC90: ≥ 32 µg/mL
Staphylococcus aureus [3]
  MIC Range: ≤0.03 to 2 µg/mL
Staphylococcus aureus [3]; read-out: MIC50
  MIC50: 0.06 µg/mL (≈ 0.144 µM)
Staphylococcus aureus [3]; read-out: MIC90
  MIC90: 0.125 µg/mL (≈ 0.3 µM)
Campylobacter jejuni; Campylobacter jejuni N= 91
  MIC (mg/L) Range: ≤0.015 to 32 mg/L
Campylobacter jejuni; read-out: MIC (mg/L) 50%
  MIC: 8 mg/L (≈ 19.2 µM)
Campylobacter jejuni; read-out: MIC (mg/L) 90%
  MIC: 8 mg/L (≈ 19.2 µM)

Source: patent EP1561465A2, “Methods of use of fluoroquinolone compounds against bacteria” (LG Life Sciences, Ltd., priority 1999, dated 2001)
